Results taken from ChEMBL document CHEMBL6178002, “Identification of a RANKL/TNF-α Dual-Inhibitor as a Potential Disease-Modifying Agent for the Treatment of Knee Osteoarthritis” (J Med Chem, 2025).
Activity calls are given as the source filed them. The rule behind the calls is not given here.

Tests used:
Bone marrow macrophage [1] = assay: Inhibition of RANKL/M-CSF-induced osteoclastogenesis in bone marrow macrophage cells (unknown origin) assessed as decrease in cathepsin K level at 1 uM by Western blot analysis; assay type: functional, cell-based; settings: time <= 5.0 day
Bone marrow macrophage [2] = assay: Inhibition of RANKL/M-CSF-induced osteoclastogenesis in bone marrow macrophage cells (unknown origin) assessed as decrease in NFATC1 level at 1 uM by Western blot analysis; assay type: functional, cell-based; settings: time <= 5.0 day
[3] = Cmax in male Sprague-Dawley rat at 10 mg/kg, po measured for 0.25 to 24 hrs; assay type: ADME, organism-based; settings: in vivo, time 0.25-24 hrs
[4] = Half life in male Sprague-Dawley rat at 10 mg/kg, po measured for 0.25 to 24 hrs; assay type: ADME, organism-based; settings: in vivo, time 0.25-24 hrs
RAW264.7 [5] = assay: Anti-inflammatory activity in LPS-stimulated mouse RAW264.7 cells assessed as decrease in IL-18 level at 10 uM preincubated for 24 hrs followed by LPS addition measured after 2 hrs by RT-qPCR analysis; assay type: functional, cell-based; settings: time 26.0 hrs
[6] = Half life in male Sprague-Dawley rat at 1 mg/kg, iv measured for 0.25 to 24 hrs; assay type: ADME, organism-based; settings: in vivo, time 0.25-24 hrs
[7] = Oral bioavailability in male Sprague-Dawley rat at 1 mg/kg, iv measured for 0.25 to 24 hrs; assay type: ADME, organism-based; settings: in vivo, time 0.25-24 hrs
Rattus norvegicus [8] = species on record: Rattus norvegicus; assay: Anti-inflammatory activity in male Sprague-Dawley rat model of ACLT-induced osteoarthritis assessed as increase in Tb.N level at 50 to 100 ug, IART treated weekly once for 8 weeks by micro-CT analysis; assay type: functional, organism-based; settings: dose 50-100 µg
[9] = Inhibition of RANKL/M-CSF-induced osteoclastogenesis in male C57/BL6 mouse bone marrow cells at 1 uM incubated for 5 to 7 days by TRAP staining based analysis relative to control; assay type: functional; settings: C57/BL6, Bone marrow cell, time 5-7 day
Bone marrow macrophage [10] = assay: Inhibition of RANKL/M-CSF-induced osteoclastogenesis in bone marrow macrophage cells (unknown origin) assessed as decrease in NFATC1 mRNA level incubated for 48 hrs by RT-qPCR analysis; assay type: functional, cell-based; settings: dose <= 5.0 µM
Primary chondrocyte [11] = assay: Anti-inflammatory activity in IL-1beta-treated C57/BL6 mouse primary chondrocytes assessed as decrease in MMP-9 mRNA level at 10 uM incubated for 24 hrs by RT-qPCR analysis; assay type: functional, cell-based
Tumor necrosis factor = Tumor necrosis factor (Homo sapiens, UniProt P01375); assay: Binding affinity to CM5 chip-immobilized human TNF-alpha assessed as dissociation constant by SPR analysis
Bone marrow macrophage [12] = assay: Inhibition of RANKL/M-CSF-induced osteoclastogenesis in bone marrow macrophage cells (unknown origin) assessed as decrease in MMP-9 level incubated for 48 hrs by Western blot analysis; assay type: functional, cell-based; settings: dose <= 2.5 µM
RAW264.7 [13] = assay: Anti-inflammatory activity in LPS-stimulated mouse RAW264.7 cells assessed as decrease in TNF-alpha level at 10 uM preincubated for 24 hrs followed by LPS addition measured after 2 hrs by RT-qPCR analysis; assay type: functional, cell-based; settings: time 26.0 hrs
Rattus norvegicus [14] = species on record: Rattus norvegicus; assay: Anti-inflammatory activity in male Sprague-Dawley rat model of ACLT-induced osteoarthritis assessed as reduction in surface temperature in arthritic joint at 50 to 100 ug, IART treated weekly once for 8 weeks by infrared imaging analysis; assay type: functional, organism-based; settings: dose 50-100 µg
[15] = AUC (0 to t) in male Sprague-Dawley rat at 1 mg/kg, iv measured for 0.25 to 24 hrs; assay type: ADME, organism-based; settings: in vivo, time 0.25-24 hrs
Rattus norvegicus [16] = species on record: Rattus norvegicus; assay: Anti-inflammatory activity in male Sprague-Dawley rat model of ACLT-induced osteoarthritis assessed as increase in BMD level at 50 to 100 ug, IART treated weekly once for 8 weeks by micro-CT analysis; assay type: functional, organism-based; settings: dose 50-100 µg
Bone marrow macrophage [17] = assay: Inhibition of RANKL/M-CSF-induced osteoclastogenesis in bone marrow macrophage cells (unknown origin) assessed as decrease in cathepsin K level incubated for 48 hrs by Western blot analysis; assay type: functional, cell-based; settings: dose <= 2.5 µM
Rattus norvegicus [18] = species on record: Rattus norvegicus; assay: Anti-inflammatory activity in male Sprague-Dawley rat model of ACLT-induced osteoarthritis assessed as reduction in articular cartilage erosion at 50 to 100 ug, IART treated weekly once for 8 weeks by H and E/S-O/FG staining based analysis; assay type: functional, organism-based; settings: dose 50-100 µg
Rattus norvegicus [19] = species on record: Rattus norvegicus; assay: Anti-inflammatory activity in male Sprague-Dawley rat model of ACLT-induced osteoarthritis assessed as increase in BV/TV level at 50 to 100 ug, IART treated weekly once for 8 weeks by micro-CT analysis; assay type: functional, organism-based; settings: dose 50-100 µg
Bone marrow macrophage [20] = assay: Inhibition of RANKL/M-CSF-induced osteoclastogenesis in bone marrow macrophage cells (unknown origin) assessed as decrease in cathepsin K mRNA level at 1 uM by RT-qPCR analysis; assay type: functional, cell-based; settings: time <= 5.0 day
[21] = Clearance in male Sprague-Dawley rat at 1 mg/kg, iv measured for 0.25 to 24 hrs; assay type: ADME, organism-based; settings: in vivo, time 0.25-24 hrs
Primary chondrocyte [22] = assay: Anti-inflammatory activity in IL-1beta-treated C57/BL6 mouse primary chondrocytes assessed as decrease in MMP-13 mRNA level at 10 uM incubated for 24 hrs by RT-qPCR analysis; assay type: functional, cell-based
Bone marrow macrophage [23] = assay: Inhibition of RANKL/M-CSF-induced osteoclastogenesis in bone marrow macrophage cells (unknown origin) assessed as decrease in c-Fos mRNA level incubated for 48 hrs by RT-qPCR analysis; assay type: functional, cell-based; settings: dose <= 5.0 µM
Bone marrow macrophage [24] = assay: Inhibition of RANKL/M-CSF-induced osteoclastogenesis in bone marrow macrophage cells (unknown origin) assessed as decrease in c-Fos level at 1 uM by Western blot analysis; assay type: functional, cell-based; settings: time <= 5.0 day
Bone marrow cell [25] = assay: Inhibition of RANKL/M-CSF-induced osteoclastogenesis in male C57/BL6 mouse bone marrow cells assessed as decrease in F-actin loop formation incubated for 5 to 7 days by rhodamine phalloidin/DAPI staining based analysis; assay type: functional; settings: dose <= 1.0 µM, time 5-7 day
[26] = Cytotoxicity against bone marrow macrophage cells (unknown origin) assessed as cell viability at 10 uM incubated for 24 hrs by CCK8 assay relative to control; assay type: toxicity, cell-based; settings: read-out: Activity
Rattus norvegicus [27] = species on record: Rattus norvegicus; assay: Anti-inflammatory activity in male Sprague-Dawley rat model of ACLT-induced osteoarthritis assessed as reduction in OA-induced pain at 50 to 100 ug, IART treated weekly once for 8 weeks by hot-plate test; assay type: functional, organism-based; settings: dose 50-100 µg
[28] = Volume of distribution at steady state in male Sprague-Dawley rat at 1 mg/kg, iv measured for 0.25 to 24 hrs; assay type: ADME, organism-based; settings: in vivo, time 0.25-24 hrs, read-out: Vdss
Rattus norvegicus [29] = species on record: Rattus norvegicus; assay: Anti-inflammatory activity in male Sprague-Dawley rat model of ACLT-induced osteoarthritis assessed as reduction in OARSI score at 50 to 100 ug, IART treated weekly once for 8 weeks; assay type: functional, organism-based; settings: dose 50-100 µg
RAW264.7 [30] = assay: Inhibition of NFkappaB activation in mouse RAW264.7 cells assessed as reduction in TNF-alpha-induced NF-kappaB p65 phosphorylation at 1 to 10 uM preincubated for 12 hrs followed by LPS/TNF-alpha addition measured after 2 hrs by Western blot analysis; assay type: cell-based; settings: dose 1-10 µM, time 14.0 hrs
RAW264.7 [31] = assay: Anti-inflammatory activity in LPS-stimulated mouse RAW264.7 cells assessed as decrease in IL-6 level at 10 uM preincubated for 24 hrs followed by LPS addition measured after 2 hrs by RT-qPCR analysis; assay type: functional, cell-based; settings: time 26.0 hrs
[32] = (§1) Inhibition of RANKL/M-CSF-induced osteoclastogenesis in male C57/BL6 mouse bone marrow cells incubated for 5 to 7 days by TRAP staining based analysis; assay type: functional; settings: bone marrow cell
Bone marrow cell [33] = assay: as §1; assay type: functional; settings: dose <= 5.0 µM, time 5-7 day

Chain of Tumor necrosis factor (P01375 whole entry): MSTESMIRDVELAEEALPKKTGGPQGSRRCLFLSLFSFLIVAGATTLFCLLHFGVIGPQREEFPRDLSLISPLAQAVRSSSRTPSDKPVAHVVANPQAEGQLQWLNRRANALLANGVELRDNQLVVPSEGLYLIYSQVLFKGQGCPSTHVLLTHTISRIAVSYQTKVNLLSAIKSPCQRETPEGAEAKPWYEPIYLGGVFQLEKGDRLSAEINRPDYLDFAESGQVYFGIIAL

Cc1cccc(C)c1NC(=O)[C@@H]1Cc2c([nH]c3ccccc23)C2(CN(c3ccccc3)C2)N1
inhibition (Bone marrow macrophage [1]): Time-dependent-effect | inhibition (Bone marrow macrophage [2]): Time-dependent-effect | Cmax [3]: 780 ng/mL | half-life [4]: 5.07 h | Activity (RAW264.7 [5]): Active | half-life [6]: 1.27 h | bioavailability [7]: 71.4% | Activity (Rattus norvegicus [8]): Active | inhibition at 1 µM [9]: 98.6% | inhibition (Bone marrow macrophage [10]): Dose-dependent-effect | Activity (Primary chondrocyte [11]): Active | Kd (Tumor necrosis factor): 18.6 µM | inhibition (Bone marrow macrophage [12]): Dose-dependent-effect | Activity (RAW264.7 [13]): Active | Activity (Rattus norvegicus [14]): Active | AUC(0-t) [15]: 227 ng·h/mL | Activity (Rattus norvegicus [16]): Active | inhibition (Bone marrow macrophage [17]): Dose-dependent-effect | Activity (Rattus norvegicus [18]): Active | Activity (Rattus norvegicus [19]): Active | inhibition (Bone marrow macrophage [20]): Time-dependent-effect | clearance [21]: 71.7 mL/min/kg | Activity (Primary chondrocyte [22]): Active | inhibition (Bone marrow macrophage [23]): Dose-dependent-effect | inhibition (Bone marrow macrophage [24]): Time-dependent-effect | inhibition (Bone marrow cell [25]): Dose-dependent-effect | viability at 24 h, 10 µM [26]: 110% | Activity (Rattus norvegicus [27]): Active | Vd [28]: 4.91 L/kg | Activity (Rattus norvegicus [29]): Active | inhibition (RAW264.7 [30]): Active | Activity (RAW264.7 [31]): Active | IC50 [32]: 0.109 µM | inhibition (Bone marrow cell [33]): Dose-dependent-effect
